Results from patent publication US20100086519A1, “Treatment of Hepatitis C Infection With Metalloporphyrins” (The Charlotte-Mecklenburg Hospital Authority d/b/a …, priority 2008, published 2010).
Read-outs that look alike come from different tables or passages of the source.

Tests used:
HCV NS5A protein [1] = biological target: T1, HCV NS5A protein (Hepatitis C virus genotype 2a, UniProt Q99IB8); experiment: NS5A protein levels in Huh-7.5 cells transfected with J6/JFH1 RNA; assay type: cell-based; conditions: J6/JFH1 RNA transfected Huh-7.5 cells, 4 or 24 h, FIGS. 8A-8D
T1 construct: processed into structural (C, E1, E2) and nonstructural (NS2, NS3, NS4A, NS4B, NS5A and NS5B) proteins; expressed in transfected cells; host or cells: Huh-7.5 cells transfected with in vitro transcribed J6/JFH1 RNA
T1 sequence (Q99IB8 1977-2442): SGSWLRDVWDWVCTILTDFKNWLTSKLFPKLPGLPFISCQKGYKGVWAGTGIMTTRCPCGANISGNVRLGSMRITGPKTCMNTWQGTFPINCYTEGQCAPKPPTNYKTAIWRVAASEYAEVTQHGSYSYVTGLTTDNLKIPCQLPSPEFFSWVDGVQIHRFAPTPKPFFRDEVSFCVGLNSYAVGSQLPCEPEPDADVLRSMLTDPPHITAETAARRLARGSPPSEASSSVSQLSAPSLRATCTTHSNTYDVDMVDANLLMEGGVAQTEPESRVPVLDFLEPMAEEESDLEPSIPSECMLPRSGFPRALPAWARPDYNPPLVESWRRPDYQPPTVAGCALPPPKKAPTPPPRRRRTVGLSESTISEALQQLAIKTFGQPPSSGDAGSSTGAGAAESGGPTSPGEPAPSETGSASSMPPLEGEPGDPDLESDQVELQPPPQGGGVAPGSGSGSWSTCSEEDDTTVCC
Description: (§1) Biochim Biophys Acta 2008; 1779:195-203.
Rice (the Rockefeller University, New York, N.Y.).

9-13 cells = experiment: CellTiter-Glo luminescent cell viability assay; assay type: cell-based, human
Procedure: The effect of ZnMP on cytotoxicity of treated cells was measured using CellTiter-Glo® Reagent by determining the number of viable cells based on quantitation of the ATP present, which signaled the presence of metabolically active cells. Cells were plated into a 96-well plate with 2500 to 5000 cells/well 24 hours before treatment. Cells were treated with indicated concentrations of ZnMP for 2, 6 and 24 hours in triplicate, an equal volume of CellTiter-Glo® Reagent was added to each well of cell culture medium. The luminescence was read on a Synergy HT microplate reader from Bio-Tek (Winooski, Vt.) with integration time set for 0.25 to 1 second. Decreases in luminescence were taken as an index of cellular cytotoxicity.
In this Example, the cytotoxicity of metalloporphyrins was evaluated. 9-13 cells were seeded into a 96-well plate 24 hours before treatment. Cells were incubated with the indicated concentrations of ZnMP for 0, 2, 6, 24 hours, and CellTiter-Glo® Reagent was added for CellTiter-Glo luminescent cell viability assay on a Synergy HT microplate reader with integration time set for 0.25 to 1 second. Decreases in luminescence were taken as an index of cellular cytotoxicity. * differs from vehicle, P<0.05, Data represent means±SE of triplicate determinations. […] Therefore, ZnMP concentrations not exceeding 20 μM for up to 6 hours or up to 10 μM for up to 24 hours were used.

HCV NS5A protein [2] = biological target: T2, HCV NS5A protein (Hepatitis C virus genotype 1b, UniProt Q9WMX2, S2204I); experiment: NS5A protein levels by Western blot in Con1 cells; assay type: cell-based; conditions: ZnMP 0, 1, 5, 10 μM, 4 hours, FIG. 1B
T2 construct: processed into structural (C, E1, E2) and nonstructural (NS2, NS3, NS4A, NS4B, NS5A and NS5B) proteins; expressed in transfected cells; host or cells: Con1 cells (Huh-7.5 with the full-length genotype 1b replicon)
T2 sequence (Q9WMX2 1973-2419 S2204I): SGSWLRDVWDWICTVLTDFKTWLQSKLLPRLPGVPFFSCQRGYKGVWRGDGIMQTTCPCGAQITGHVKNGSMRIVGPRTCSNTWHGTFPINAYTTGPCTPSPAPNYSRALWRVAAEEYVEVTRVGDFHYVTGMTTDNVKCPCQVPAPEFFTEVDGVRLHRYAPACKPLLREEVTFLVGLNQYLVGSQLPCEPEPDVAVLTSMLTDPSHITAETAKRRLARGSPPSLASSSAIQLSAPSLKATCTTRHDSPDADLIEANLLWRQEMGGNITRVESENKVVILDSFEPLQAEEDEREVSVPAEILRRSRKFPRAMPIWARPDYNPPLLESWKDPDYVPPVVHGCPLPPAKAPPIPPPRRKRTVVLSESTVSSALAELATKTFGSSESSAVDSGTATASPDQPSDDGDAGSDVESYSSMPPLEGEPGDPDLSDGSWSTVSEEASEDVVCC
Description: Bartenschlager (University of Heidelberg, Heidelberg, Germany).
as §1

Procedure for HCV core protein: In brief, total proteins (30-50 μg) were separated on 4-15% gradient SDS-PAGE gels. After electrophoretic transfer onto ImmunBlot PVDF membrane, membranes were blocked for 1 hour in PBS containing 5% nonfat dry milk and 0.1% Tween-20, and then incubated overnight with primary antibody at 4° C. The dilutions of the primary antibodies were as follows: 1:2000 for anti-HCV NS5A and anti-GAPDH antibodies, and 1:5000 for anti-HCV core antibody. The membranes were then incubated for 1 hour with horseradish peroxidase-conjugated secondary antibodies (dilution 1:10,000). Finally, the bound antibodies were visualized with the ECL-Plus chemiluminescence system according to the manufacturer's protocol. A Kodak 1DV3.6 computer-based imaging system (Rochester, N.Y.) was used to measure the relative optical density of each specific band obtained after Western blotting. Data are expressed as percentages of the controls (corresponding to the value obtained with the vehicle-treated cells), which were assigned values of one. […]
NS5A protein levels in 9-13 and Con1 cells, core protein levels in CNS3 cells, and NS5A and core protein levels in Huh-7/T7 cells transfected with pFK-Con1/GND (a plasmid encoding a replication deficient variant of Con1) exposed to different concentrations of ZnMP (0, 1, 5, 10 μM) for 4 hours were evaluated. […]

CCC1=C(C)c2cc3[nH]c(cc4nc(cc5[n-]c(cc1n2)c(C)c5CCC(=O)[O-])C(CCC(=O)[O-])=C4C)c(C)c3CC.[H+].[Zn+2] [ZnMP, Zinc mesoporphyrin]
NS5A protein levels (HCV NS5A protein [1]): rapid and profound decrease
HCV core protein levels (HCV core protein; Huh-7/T7 cells transfected with pFK-Con1/GND, 0, 1, 5, 10 μM, 4 hours, FIG. 1D): no detectable effects
HCV core protein levels (HCV core protein; Huh-7/T7 cells, pFK-Con1/GND, 24 h, FIG. 7C): remained unaffected
cell viability (9-13 cells; 20 μM, 2-6 hours): no significant effect
cytotoxicity (9-13 cells; 20 μM, 24 hours, p<0.05): significant cytotoxicity
cell viability (9-13 cells; 1-10 μM, 2-24 hours): no significant effect
NS5A protein levels (HCV NS5A protein [2]): marked decrease
